Assay results: patent US11253519B2, “Composition used to improve symptoms of autism spectrum disorder, and method using same for improving symptoms of autism spectrum disorder” (RENASCIENCE CO., LTD., priority 2016, dated 2022)

What was measured:
Assay type in all cases: in vivo, human
[1] = Plasma kinetics of pyridoxamine and metabolites in healthy male adults (LC-MS-MS)
Excerpt: Rather, in blood, the pyridoxal level was higher than the pyridoxamine level. […] The observation results were obtained in a clinical trial performed by collaborators of the applicant of this application, and are shown here simply for reference.

[2] = test system: ASD patient; assay: PARS-TR rating (items 25 to 57, each 0 none, 1 somewhat noticeable, 2 noticeable) in ASD patients before and after intake
Excerpt: PARS (Pervasive Developmental Disorder Autism Society Japan Rating Scale) is a scale composed of 57 items to determine the characteristics in pervasive developmental disorder (PDD) (which may hereinafter also simply be referred to as “PDD”), and to evaluate the support difficulty by interviewing the mothers of the subjects (or other rearer, if it is difficult to obtain information from the mother of a subject); PARS-TR is its revised version. The revised version contains revised wording of the commentary of question items, while maintaining the reliability and validity of the rating scale of the former PARS. On a side note, question items and rating in PARS-TR, PARS-TR items rated for each age group, a score calculation method, and an ASD characteristics test method are detailed in PARS-TR PARS Text Revision (written and edited by Hattatsu Shogai Shien no tameno Hyoka Kenkyu Kai [Study of the Assessment for Supporting Developmental Disorder], a general incorporated association, Spectrum Publishing Company), the disclosure of which is incorporated herein by reference.
FIG. 3 illustrates 57 rating items prescribed in PARS-TR. The rating items vary depending on the age group of targets for diagnosis (children before school age (early childhood), elementary school students (childhood), and junior high-school students or older subjects (early adolescence or adulthood)). Items 1 to 34 are directed to those in early childhood. Items 1 to 34 are intended to assess the peak in early childhood (assessment for most noticeable symptoms in early childhood) of all subjects (children before school age, elementary school students, and junior high-school students or older subjects), and also to assess the current condition of subjects in early childhood. Peak assessment and current condition assessment are performed for young children because, for example, clear autistic symptoms before the age of 4 years may be alleviated after age 5. Young children are not assessed by items 35 to 57. Elementary school students are assessed by items 1 to 34 for early childhood to determine the peak in early childhood, and items 21 to 53 for childhood to determine the current condition. Junior high-school students or older subjects are assessed by the 34 items for early childhood to determine the peak in early childhood, and items 25 to 57 for early adolescence or adulthood to determine the current condition. The specific evaluation method is described in detail in Example 2.
Assessment by PARS-TR is performed by questioning the mother or someone else regarding the severity of symptoms concerning development and behaviors described in rating items in terms of “assessment of the peak in early childhood” and “assessment of the current condition,” and the answer was classified into the following 3 levels and assessed: “0=none (no symptoms asked were observed/no),” “1=somewhat noticeable (symptoms asked were sometimes (somewhat) observed/yes),” and “2=noticeable (symptoms asked were often (quite) observed/yes).” The PARS-TR score is a value determined by simply summing up the assessment score of each item, excluding items that cannot be assessed. Specifically, the cutoff value at which the subject is diagnosed with PDD is score 9 in early childhood, score 13 in childhood, and score 20 in early adolescence or adulthood.
[…] The total scores were compared.
(§1) The symptoms of ASD of the ASD patient were assessed based on the scores of ABC-J, PARS-TR, and RSB-R (Japanese version) by a medical doctor who is a researcher of ASD.

[3] = test system: ASD patient; assay: RSB-R (Repetitive Behavior Scale-Revised, Japanese version, 43 items, 6 subscales) in ASD patients before and after intake; conditions: 800 mg/day oral + fursultiamine 25 mg/day, 8 weeks after the intake
Excerpt: RSB-R is composed of 6 subscales (I. Stereotypical Behavior, II. Self-Harming Behavior, III. Obsessive-Compulsive Behavior, IV. Ritualized Behavior, V. Insistence on Sameness, and VI. Circumscribed Interests) and 43 items. RSB-R (Japanese version) is a Japanese version of RBS-R, which is a rating scale used worldwide, and whose validity has already been verified (Inada et al., Research in Autism Spectrum Disorders, Vol. 15-16, July 2015, pp. 60-68; Inada et al., Study on reliability and validity of the Japanese version of Repetitive Behaviors Scale—Revised (RBS-R), The Japanese Journal of Developmental Psychology, 2012, Vol. 23, No. 2, pp. 123-133). FIG. 4 illustrates 43 items of RSB-R (including 6 subscales), and the relation between the 43 items of RSB-R and diagnostic criteria A and B of DSM-5.
as §1
The ASD symptoms of the ASD patient were assessed based on the scores in ABC-J and RSB-R (Japanese version) by a medical doctor who is a researcher of ASD.

[4] = Vitamin B1 level in whole blood, serum pyridoxamine and pyridoxal levels and Wernicke's encephalopathy in two test subjects on pyridoxamine medication
[5] = case 2, 600 mg/day oral + fursultiamine 25 mg/day, 17 Days After Administration, Before Administration: 0
[6] = case 2, 600 mg/day oral + fursultiamine 25 mg/day, 17 Days After Administration, Before Administration: 1
[7] = case 2, 600 mg/day oral + fursultiamine 25 mg/day, 17 Days After Administration, Before Administration: 2
[8] = case 3, 800 mg/day oral + fursultiamine 25 mg/day, 8 weeks after the intake, before intake: rating 1

## Cc1ncc(CO)c(CN)c1O.Cl.Cl [pyridoxamine dihydrochloride]
[1]; 300, 600, 900 mg/dose oral
  plasma levels of pyridoxamine, pyridoxal, and 4-pyridoxic acid versus dose: increased along with the increase in dose
[1]; 300, 600 or 900 mg/dose oral at 0, 6 and 12 hours, trial by collaborators of the applicant
  time to peak plasma level of pyridoxamine (unchanged substance): 3 h
[1]; 300, 600 or 900 mg/dose oral, FIG. 14B
  plasma pyridoxine (PN) level: did not show any substantial change
[2]; [5]
  PARS-TR item 27: Having negative lifestyle habits, and being incapable of living independently: 0
  PARS-TR item 29: Showing extreme pickiness in food, with no extremely narrow range of food choice: 0
  PARS-TR item 31: Being insensitive or sensitive to pain or heat: 0
  PARS-TR item 32: Being terrified of nothing: 0
  PARS-TR item 34: Showing self-harming behaviors, such as hitting the head on the wall or biting the hand: 0
  PARS-TR item 39: Having difficulty understanding what is said from one situation to another: 0
  PARS-TR item 40: Using big words, but not fully understanding the meaning thereof: 0
  PARS-TR item 41: Difficulty understanding who is talking to who in a large group conversation: 0
  PARS-TR item 42: Being incapable of explaining how and why: 0
  PARS-TR item 47: Enacting a familiar scene from a TV show alone: 0
  PARS-TR item 48: Persistently and repeatedly harassing someone on purpose: 0
  PARS-TR item 49: Always wanting to be the best: 0
  PARS-TR item 50: Showing tic symptoms (e.g., blinking, head movements, abuseful language): 0
  PARS-TR item 51: Being restless in a manner inappropriate for the context: 0
  PARS-TR item 53: Showing behavioral arrest, and becoming incapable of moving to the next act fo frozen: 0
[2]; [6]
  PARS-TR item 25: Persistently asking the same question: 0
  PARS-TR item 26: Showing confusion when regular daily routine of procedures suddnly change: 1
  PARS-TR item 33: Suddenly crying or becoming upset: 0
  PARS-TR item 36: Showing self-centered behaviors without regard for surrounding people: 0
  PARS-TR item 37: Showing interactive behaviors inappropriate for the context when approached by someone: 1
  PARS-TR item 38: Interacting with others only when having a request: 0
  PARS-TR item 43: Speaking in a unnatural and monotonous tone: 1
  PARS-TR item 44: Having difficulty understanding another person's feeling or point of view: 0
  PARS-TR item 45: Having difficulty understanding jokes and irony, and interpreting them literally: 1
  PARS-TR item 52: Being very careless, unable to behave appropriately for the context: 0
  PARS-TR item 54: Appearing unashamed: 1
  PARS-TR item 55: Being easily deceived: 1
  PARS-TR item 56: Being likely to feel victimized, suspicious, or aggressive: 0
  PARS-TR item 57: Being emotionally unstable, and showing frequent emotional ups and downs: 0
[2]; [7]
  PARS-TR item 28: Becoming mentally unstable when recalling bad events in the past: 1
  PARS-TR item 30: Being disgusted with a particular sound: 1
  PARS-TR item 46: Being keen on acquiring knowledge in a particular field, such as the names of places or train stations: 1
[2]; case 2, 600 mg/day oral + fursultiamine 25 mg/day, 17 Days After Administration, Before Administration: 22, cutoff 20 or more
  PARS-TR Total Score of Items 25 to 57: 11
[2]; case 3, 800 mg/day oral + fursultiamine 25 mg/day, 8 weeks
  severity of hypersensibility: lowered the severity of hypersensibility
[2]; [8]
  PARS-TR item 31 rating (insensitive to pain): 1
  PARS-TR item 32 rating (frightened by wipers, ceiling fan): 0
[2]; case 3, 800 mg/day oral + fursultiamine 25 mg/day, 8 weeks after the intake, before intake: rating 2
  PARS-TR item 30 rating (hyperacusis): 1
[2]; case 3, 800 mg/day oral + fursultiamine 25 mg/day, 18 weeks after the intake, before intake: 21, cutoff score 20
  PARS-TR current score in early adolescence or adulthood: 14
[3]; case 3, 6 subscales, FIG. 8B
  RBS-R total score for each subscale compared with before the intake: significant decrease
[3]; case 3, FIG. 8A
  RBS-R total score compared with before the intake: significant decrease
[3]; case 4, FIG. 10A
  total score of all items in RBS-R compared with before the intake: significantly decreased
[3]; case 4, FIG. 10B
  RBS-R total score of subscale items (Stereotypical Behavior, Self-Harming Behavior, Obsessive-Compulsive Behavior, Insistence on Sameness): significantly decreased
[4]; human, serum, oral, subject ID No. 3, 4 weeks after start of administration
  concentration at 4 weeks: 1540 ng/mL
[4]; human, serum, oral, subject ID No. 3, 12 weeks after start, with fursultiamine 75 mg/day
  concentration at 12 weeks: 23.2 ng/mL
[4]; human, serum, oral, subject ID No. 6, 8 weeks after start of administration
  concentration at 8 weeks: 421 ng/mL
[4]; human, serum, oral, subject ID No. 6, 11 weeks after start, with fursultiamine
  concentration at 11 weeks: 140 ng/mL
[4]; subject ID No. 3, 6 weeks after start of administration, epilepsy-like symptom
  brain MRI finding during medication: sign suggestive of Wernicke's encephalopathy
[4]; subject ID No. 6, 9 weeks after start of administration
  brain MRI finding during medication: signs suggestive of Wernicke's encephalopathy
